{"source": "patent US20130209403A1", "about": "“USE OF INHIBITORS OF PHOSPHOLIPASE A2 FOR THE TREATMENT OR PREVENTION OF FLAVIVIRUS INFECTION” (Ruprecht-Karls-Universitaet, priority 2010, published 2013)", "key": {"[1]": {"system": "HCV", "details": "20 μm pyrrolidine-2 vs untreated cells, FIG. 7"}, "[2]": {"system": "HCV core protein", "details": "lipid droplet fractions; 20 μm pyrrolidine-2 vs untreated cells; FIG. 8A-C", "source_text": "Standard ELISA and Western Blot protocols were used for the analysis of lipid droplet fractions of untreated cells and cells treated with 20 μm pyrrolidine-2."}, "[3]": {"system": "DENV", "details": "Huh-7.5 cells, DV-R2A, 0, 5, 10 and 20 μM, added 42 h after transfection", "description": "This example employs a standard bioassay for determining the effect of the cPLA2α inhibitor pyrrolidine-2 on the production of Huh-7.5 cells transfected with dengue virus RNA DV-R2A. The assay was performed according to standard protocols and materials were purchased from commercial suppliers and used according to respective manuals supplied therewith. Pyrrolidine-2 was added to the cells 42 h after transfection at the indicated final concentrations of 0, 5, 10 and 20 μM."}, "[4]": {"system": "HCV", "details": "Jc1-transfected cells, 0, 5, 10 and 20 μM, added 42 h after transfection", "description": "This example employs a standard bioassay for determining the effect of the cPLA2α inhibitor pyrrolidine-2 on the production of Jc1-transfected cells. The general assay set up is shown in\nFIG. 2. The assay was performed according to standard protocols and materials were purchased from commercial suppliers and used according to respective manuals supplied therewith. Pyrrolidine-2 was added to the cells 42 h after transfection at […] the indicated final concentrations of 0, 5, 10 and 20 μM."}, "[5]": {"system": "DENV", "experiment": "Infectivity of DENV, limiting dilution titration assay", "text": "A standard limiting dilution titration assay was employed for assessing the relevance of cPLA2α activity for release of infectious DENV particles."}, "[6]": {"system": "ApoE", "details": "Mock- and Jc1-transfected cells; 20 μm pyrrolidine-2; FIG. 9", "text": "(§2) A standard ELISA protocol was employed for assessing the relevance of cPLA2α activity for release of lipoproteins carrying ApoB and ApoE."}, "[7]": {"system": "HCV", "details": "20 μm pyrrolidine-2 vs untreated cells; FIG. 4B", "description": "(§1) The assay was performed according to standard protocols and materials were purchased from commercial suppliers and used according to respective manuals supplied therewith."}, "[8]": {"details": "20 μm pyrrolidine-2 compared to DMSO; FIG. 5", "description": "as §1"}, "[9]": {"system": "ApoB", "details": "Mock- and Jc1-transfected cells; 20 μm pyrrolidine-2; FIG. 9", "text": "as §2"}}, "data": [{"compound": "CC(C)CN(Cc1ccccc1-c1ccccc1)[C@@H]1C[C@@H](CNC(=O)C=Cc2ccc(C=C3SC(=O)NC3=O)cc2)N(C(=O)c2ccccc2C(=O)c2ccc(F)cc2F)C1.Cl", "note": "[pyrrolidine-2, N-{(2S,4R)-4-(Biphenyl-2-ylmethyl-isobutyl-amino)-1-[2-(2,4-difluorobenzoyl)-benzoyl]-pyrrolidin-2-ylmethyl}-3-[4-(2,4-dioxothiazolidin-5-ylidenemethyl)-phenyl]acrylamide, HCl]", "values": [{"measurement": "lowering of intracellular virus titer", "setting": "[1]", "value": "about 10 fold"}, {"measurement": "reduction of extracellular virus titers", "setting": "[1]", "value": 100, "unit": "fold"}, {"measurement": "quantity of lipid droplet associated core protein", "setting": "[2]", "value": "reduced"}, {"measurement": "RNA replication of DENV", "setting": "[3]; FIG. 11A", "value": "only slightly affected"}, {"measurement": "release of infectious DENV particles", "setting": "[3]; FIG. 11B", "value": "potently inhibited in a dose-dependent manner"}, {"measurement": "RNA replication of HCV", "setting": "[4]; FIG. 3A", "value": "not affected"}, {"measurement": "release of infectious HCV particles", "setting": "[4]; FIG. 3B", "value": "potently inhibited in a dose-dependent manner"}, {"measurement": "inactivation of released infectious DENV particles", "setting": "[5]; particles produced in the absence of the inhibitor, then treated with 20 μm pyrrolidine-2, FIG. 12B", "value": "does not inactivate released infectious particles"}, {"measurement": "reduction of the quantity of released infectious DENV particles", "setting": "[5]; transfected Huh-7.5 cells treated with 20 μm pyrrolidine-2, FIG. 12A", "value": "more than 3 orders of magnitude"}, {"measurement": "reduction of the quantity of secreted ApoE", "setting": "[6]", "value": "more than 50%"}, {"measurement": "viral entry", "setting": "[7]", "value": "does not influence viral entry"}, {"measurement": "cytotoxicity", "setting": "[8]", "value": "did not show any cytotoxicity"}, {"measurement": "reduction of the quantity of secreted ApoB", "setting": "[9]", "value": "more than 50%"}]}]}
